Measurements from ChEMBL document CHEMBL1155194, “Synthesis and characterization of environment-sensitive fluorescent ligands for human 5-HT1A receptors with 1-arylpiperazine structure” (J Med Chem, 2009).

Biological target: T1, 5-hydroxytryptamine receptor 1A (Homo sapiens, UniProt P08908)
T1 sequence (P08908 whole entry): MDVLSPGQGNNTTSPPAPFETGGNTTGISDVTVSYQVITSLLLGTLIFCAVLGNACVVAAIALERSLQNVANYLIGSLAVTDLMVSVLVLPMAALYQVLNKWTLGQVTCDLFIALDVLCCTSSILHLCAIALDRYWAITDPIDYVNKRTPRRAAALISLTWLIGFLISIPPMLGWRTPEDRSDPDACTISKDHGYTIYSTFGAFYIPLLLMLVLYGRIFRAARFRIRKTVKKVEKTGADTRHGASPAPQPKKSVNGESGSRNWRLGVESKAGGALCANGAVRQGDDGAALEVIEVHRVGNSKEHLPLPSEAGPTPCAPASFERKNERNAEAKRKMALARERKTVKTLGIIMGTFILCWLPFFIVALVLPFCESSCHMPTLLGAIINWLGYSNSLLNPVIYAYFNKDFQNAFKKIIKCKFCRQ
Assay: biochemical
Description: Displacement of [3H]8-OH-DPAT from human recombinant 5HT1A receptor expressed in HEK293 cells after 120 mins

| Structure (SMILES) | Ki |
| --- | --- |
| COc1ccccc1N1CCN(CCNS(=O)(=O)c2cccc3c(N(C)C)cccc23)CC1 | 73 nM |
| COc1ccccc1N1CCN(CCCNS(=O)(=O)c2cccc3c(N(C)C)cccc23)CC1 | 29 nM |
| COc1ccccc1N1CCN(CCCCCN2C(=O)c3ccc(N(C)C)cc3C2=O)CC1 | 7.8 nM |
| COc1ccccc1N1CCN(CCCN2C(=O)c3ccc(N(C)C)cc3C2=O)CC1 | 0.47 nM |
| COc1ccccc1N1CCN(CCN2C(=O)c3cccc4c(N)ccc(c34)C2=O)CC1 | 44 nM |
| COc1ccccc1N1CCN(CCCCNS(=O)(=O)c2cccc3c(N(C)C)cccc23)CC1 | 151 nM |
| COc1ccccc1N1CCN(CCCCN2C(=O)c3cccc4c(N)ccc(c34)C2=O)CC1 | 6.8 nM |
| COc1ccccc1N1CCN(CCCN2C(=O)c3cccc4c(N)ccc(c34)C2=O)CC1 | 116 nM |
| COc1ccccc1N1CCN(CCN2C(=O)c3ccc(N(C)C)cc3C2=O)CC1 | 15 nM |
| COc1ccccc1N1CCN(CCCCCNS(=O)(=O)c2cccc3c(N(C)C)cccc23)CC1 | 54 nM |
| COc1ccccc1N1CCN(CCCCN2C(=O)c3ccc(N(C)C)cc3C2=O)CC1 | 0.5 nM |
| COc1ccccc1N1CCN(CCCCCN2C(=O)c3cccc4c(N)ccc(c34)C2=O)CC1 | 0.67 nM |
